Molecules are shown by their SMILES.

One assay deals with GPR35 (Homo sapiens, UniProt Q9HC97). As to conditions: reported by Wang et al., J. Biol. Chem. 281:22021-22028 (2006); cited from earlier work.
The test system of assay [1] is mouse GPR35 expression in 3T3-L1 adipocytes. In words: TaqMan analysis of mouse GPR35 expression in 3T3-L1 adipocytes after treatments. Type of assay: cell-based. As to conditions: 10 μM Linoleic Acid, 1 and 24 hours, serum free media; control untreated adipocytes at time 0; FIG. 8. On the procedure:
GPR35 expression in 3T3-L1 adipocytes was then analyzed after certain treatments, such as treatment with linoleic acid. Briefly, 3T3-L1 cells were differentiated into adipocytes using a standardized protocol found in Patel Y M, Lane M D. (Role of calpain in adipocyte differentiation. Proc. Natl. Acad. Sci. USA 96:1279-1284, 1999). Cells were then treated for 1 and 24 hours in serum free media containing either 50 nM insulin (Sigma Cat # I-1882), 10 μM Linoleic Acid (Calbiochem Cat # 436305 lot #B52793), 50 pg/ml IL-1Beta (R&D Systems Cat # 401-ML lot #BN034012), 0.5 ng/mL TNF-alpha (R&D Systems Cat# 410-MT lot # CS083051). Control was untreated 3T3-L1 adipocytes at time 0. RNA was then isolated using Trizol method (Invitrogen Cat # 15596-018). cDNA was made using Biorad iScript cDNA Synthesis Kit.
A 1× TaqMan supermix was made in a 5 mL polypropylene tube. Forward and Reverse primers were added to give a 300 nM final concentration; appropriate amount of probe was added to give a final concentration of 200 nM. Total volume per well was 20 μL. 2 μL was cDNA, while the other 18 μL was TaqMan supermix and nuclease-free water. The sequence for primers and the probe were: […]
The thermo cycler conditions used were: (1) initial steps: hold for 2 minutes at 50° C., then hold for 10 minutes at 95° C. […]
In general terms: In qPCR the cycle at which signal appears reflects the starting amount.

GPR35, sequence (Q9HC97 whole entry, species assumed): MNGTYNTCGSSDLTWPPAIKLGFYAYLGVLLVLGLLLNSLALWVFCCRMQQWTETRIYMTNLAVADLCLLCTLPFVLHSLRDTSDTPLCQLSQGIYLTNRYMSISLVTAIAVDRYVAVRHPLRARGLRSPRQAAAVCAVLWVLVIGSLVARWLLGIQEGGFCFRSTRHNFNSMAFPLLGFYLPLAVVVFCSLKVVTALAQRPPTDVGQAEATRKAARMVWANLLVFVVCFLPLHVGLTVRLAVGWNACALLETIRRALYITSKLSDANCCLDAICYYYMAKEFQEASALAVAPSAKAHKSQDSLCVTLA

As to `O=C(O)c1cc(=O)c2ccccc2[nH]1` [kynurenic acid], the “ligand for GPR35” value on GPR35 is reported as “ligand for GPR35”.
In the case of `CCCCC/C=C\C/C=C\CCCCCCCC(=O)O` [linoleic acid], the “GPR35 expression in 3T3-L1 adipocytes” value in assay [1] is recorded as “significantly increased”.

These data come from patent US8039219B2, “Method of using GPR35 to identify metabolic-stabilizing compounds” (Arena Pharmaceuticals, Inc., priority 2004, dated 2011).
